Experimental data reported in US6110122A, “Breath test for assessing hepatic function” (priority 1999, dated 2000).
Where “and” joins values, the source holds several entries; their conditions need not be identical. Identical values can stand only once. Blank lines part the entries; values can stand above or below the molecule they belong to.

Tests used:
[1] = test system: hepatic mitochondrial function; test: Effect of alcohol and ASA ingestion on the MBT in healthy controls; assay type: in vivo, human; settings: for effect of ingestion on MBT (in words): healthy controls
Description: […] The protocol was then identical to that described previously in Example 1.
The protocol for breath collection was followed as described previously.
The maximum percent dose oxidized per minute was calculated for each substrate following the procedure outlined above in Example 1.

mitochondrial function = settings: therapeutic doses of ASA; cited from earlier work
[2] = cited from earlier work
hepatic mitochondria = settings: in vivo; cited from earlier work
cytosolic function = settings: patients with alcoholic disease; cited from earlier work
[3] = test system: hepatic mitochondrial function; settings: in vivo
[4] = cited from earlier work; remark: listed apart in the source
[5] = test system: hepatic mitochondrial function; test: MBT in patients with liver disease, reproducibility and correlation with Child-Pugh score

Structure (SMILES): CC(=O)Oc1ccccc1C(=O)O [ASA, acetylsalicylic acid]
- mean change of MBT from baseline with ASA ([1]; ASA, n=11, p<0.001): 36±36%
- effect of ingestion on MBT (in words) [1]: increases
- MBT after ASA ingestion ([1]; individual subject, ASA 30 mg/kg 15 min prior to MBT): 9.47 % dose/hour and 10.08 % dose/hour and 8.88 % dose/hour and 8.73 % dose/hour and 7.77 % dose/hour and 7.34 % dose/hour and 9.24 % dose/hour and 6.47 % dose/hour and 8.61 % dose/hour and 6.88 % dose/hour and 9.27 % dose/hour
- change detected by ^13 C-KICA test (in words) (mitochondrial function): mitochondrial changes

Structure (SMILES): CC(C)CC(=O)C(=O)O [KICA, ketoisocaproic acid]
- stability in solution (in words) [2]: instability in solution
- reduction in ^14 CO2 production (hepatic mitochondria): 75%

Structure (SMILES): Cc1c(N(C)C)c(=O)n(-c2ccccc2)n1C [aminopyrine]
- aminopyrine breath test / galactose elimination capacity (in words) (cytosolic function): normal

- MBT, Mean T1 and T2 (baseline), group mean ([1]; ASA group (n=11) before ASA): 6.17 % dose/hour
- MBT, Mean T1 and T2 (baseline), group mean ([1]; alcohol group (n=9) before alcohol): 7.37 % dose/hour
- mean difference between MBT test 1 and test 2 (95% CI) [3]: -0.073 (-0.475,0.330)
- MBT result for all patients ([5]; all liver patients): 2.85 % dose/hour
- MBT 1, group mean ([5]; cirrhotic patients, mean): 2.67 % dose/hour
- MBT 2, group mean ([5]; cirrhotic patients, mean): 2.86 % dose/hour
- MBT Mean, group mean ([5]; cirrhotic patients, mean of MBT 1 and 2): 2.76 % dose/hour
- MBT value (mean±SD), CP A ([5]; patients with CP score A): 5.16±1.61 % dose/hour
- MBT value (mean±SD), CP B ([5]; patients with CP score B): 2.81±0.94 % dose/hour
- MBT value (mean±SD), CP C ([5]; patients with CP score C): 1.45±0.55 % dose/hour
Structure (SMILES): CSCC[C@H](N)C(=O)O [methionine, L-1-^13 C-methionine]
- correlation r of methionine clearance with CP score ([4]; cirrhotic patients): -0.80
- correlation r of methionine clearance with GEC ([4]; cirrhotic patients): 0.82
- plasma clearance of methionine (in words) ([4]; intravenous, liver disease / cirrhotic patients vs healthy controls): reduced
- fasting plasma methionine level (in words) ([4]; liver disease vs healthy controls): elevated
- MBT 1 ([5]; cirrhotic patients, individual): 5.01 % dose/hour and 6.30 % dose/hour and 2.47 % dose/hour and 7.18 % dose/hour and 5.66 % dose/hour and 3.20 % dose/hour and 3.55 % dose/hour and 1.67 % dose/hour and 4.36 % dose/hour and 2.63 % dose/hour and 2.10 % dose/hour and 0.99 % dose/hour and 2.02 % dose/hour and 1.31 % dose/hour and 1.34 % dose/hour and 1.87 % dose/hour and 1.94 % dose/hour and 0.46 % dose/hour and 1.80 % dose/hour and 0.54 % dose/hour and 1.11 % dose/hour
- MBT Mean ([5]; cirrhotic patients, individual, mean of MBT 1 and 2): 4.55 % dose/hour and 6.56 % dose/hour and 2.58 % dose/hour and 6.43 % dose/hour and 5.69 % dose/hour and 3.02 % dose/hour and 3.47 % dose/hour and 2.03 % dose/hour and 4.34 % dose/hour and 2.73 % dose/hour and 2.11 % dose/hour and 1.99 % dose/hour and 2.13 % dose/hour and 1.32 % dose/hour and 1.34 % dose/hour and 1.82 % dose/hour and 2.04 % dose/hour and 0.53 % dose/hour and 1.40 % dose/hour and 0.54 % dose/hour and 0.97 % dose/hour and 1.38 % dose/hour
- MBT 2 ([5]; cirrhotic patients, individual, repeat within 12 h): 4.09 % dose/hour and 6.81 % dose/hour and 2.69 % dose/hour and 5.68 % dose/hour and 5.71 % dose/hour and 2.84 % dose/hour and 3.39 % dose/hour and 2.39 % dose/hour and 4.31 % dose/hour and 2.83 % dose/hour and 2.11 % dose/hour and 2.98 % dose/hour and 2.24 % dose/hour and 1.33 % dose/hour and 1.77 % dose/hour and 2.14 % dose/hour and 0.59 % dose/hour and 0.99 % dose/hour and 0.82 % dose/hour and 1.44 % dose/hour

Structure (SMILES): CCO [alcohol]
- mean change of MBT from baseline with alcohol ([1]; alcohol, n=9, p<0.003): -59±17%
- effect of ingestion on MBT (in words) [1]: significantly decreases
- MBT after alcohol ingestion ([1]; individual subject, 60 cc vodka 15 min prior to MBT): 3.36 % dose/hour and 4.54 % dose/hour and 2.76 % dose/hour and 2.22 % dose/hour and 2.97 % dose/hour and 3.39 % dose/hour and 1.86 % dose/hour and 3.52 % dose/hour and 2.45 % dose/hour
- MBT after alcohol ingestion, group mean ([1]; n=9, 60 cc vodka 15 min prior to MBT): 3.01 % dose/hour and 3.01±0.81 % dose/hour
- effect on KICA decarboxylation (in words) (hepatic mitochondria): deceases KICA decarboxylation

Structure (SMILES): O=C[C@H](O)[C@@H](O)[C@@H](O)[C@H](O)CO [galactose]
- aminopyrine breath test / galactose elimination capacity (in words) (cytosolic function): normal

Structure (SMILES): O=C([O-])c1ccccc1O.[Na+] [sodium salicylate]
- effect on KICA decarboxylation (in words) (hepatic mitochondria): increase in KICA decarboxylation
